Assay results published in patent US10375956B2, “Herbicidally active 2-(substituted-phenyl)-cyclopentane-1,3-dione compounds and derivatives thereof” (Syngenta Limited, priority 2013, dated 2019).

How the values were obtained:
Format in all cases: in vivo
[1] = tested on: Echinochloa crus-galli (ECHCG); experiment: Test 1 glasshouse assay, pre-emergence herbicidal activity; settings: 312 h, visual evaluation after 13 days, read-out: Percentage phytotoxicity ECHCG
Outline: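 Glasshouse test on soil-sown seed at 24/16° C day/night and 65% humidity. Application was a spray one day post-sowing, vehicle acetone/water (50:50) with 0.5% Tween 20. Readout: visual phytotoxicity percentage at day 13.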

[2] = tested on: Sorghum vulgare Pers. (SORVU); experiment: Test 2 glasshouse assay (IF50 formulation, X-77), pre-emergence herbicidal activity; settings: Sorghum bicolor, 480 h, 20DAA, read-out: Percentage phytotoxicity SORVU
Outline: (§1)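 Percent phytotoxicity is scored by eye 20 days after a pre-emergence spray given one day after sowing, or 15 days after a post-emergence spray given about 12 days after sowing. Spray is IF50 formulation diluted in 0.2% v/v X-77 aqueous adjuvant.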

[3] = tested on: Brachiaria plantaginea (BRAPL); experiment: as above; settings: Urochloa plantaginea, 480 h, 20DAA, read-out: Percentage phytotoxicity BRAPL
Outline: as §1

[4] = tested on: Digitaria sanguinalis (DIGSA); experiment: as above; settings: 480 h, 20DAA, read-out: Percentage phytotoxicity DIGSA
Outline: as §1

[5] = tested on: Setaria faberi (SETFA); experiment: as above; settings: 480 h, 20DAA, read-out: Percentage phytotoxicity SETFA
Outline: as §1

[6] = tested on: Echinochloa crus-galli (ECHCG); experiment: as above; settings: 480 h, 20DAA, read-out: Percentage phytotoxicity ECHCG
Outline: as §1

[7] = tested on: Panicum miliaceum (PANMI); experiment: as above; settings: 480 h, 20DAA, read-out: Percentage phytotoxicity PANMI
Outline: as §1

[8] = tested on: Alopecurus myosuroides (ALOMY); experiment: Test 2 glasshouse assay (IF50 formulation, X-77), post-emergence herbicidal activity; settings: 360 h, 15 DAA, visual score, read-out: Post-emergence herbicidal activity (percentage phytotoxicity) ALOMY; for pest or weed control at 125 g/ha: application rate 125 g/ha
Outline: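 Plants in soil pots were sprayed 1 day (pre-emergence) or ~12 days (post-emergence) after sowing with IF50 formulation diluted in 0.2% v/v X-77. Cool species were grown at 20/16 °C day/night, 16 h light, 65% humidity. Visual % phytotoxicity was scored at 20DAA (pre) or 15DAA (post).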

[9] = tested on: Sorghum vulgare Pers. (SORVU); experiment: as above; settings: Sorghum bicolor, 360 h, 15 DAA, visual score, read-out: Post-emergence herbicidal activity (percentage phytotoxicity) SORVU; for pest or weed control at 125 g/ha: application rate 125 g/ha
Outline: as §1

[10] = tested on: Brachiaria plantaginea (BRAPL); experiment: as above; settings: Urochloa plantaginea, 360 h, 15 DAA, visual score, read-out: Post-emergence herbicidal activity (percentage phytotoxicity) BRAPL; for pest or weed control at 125 g/ha: application rate 125 g/ha
Outline: as §1

[11] = tested on: Digitaria sanguinalis (DIGSA); experiment: as above; settings: 360 h, 15 DAA, visual score, read-out: Post-emergence herbicidal activity (percentage phytotoxicity) DIGSA; for pest or weed control at 125 g/ha: application rate 125 g/ha
Outline: as §1

[12] = tested on: Setaria faberi (SETFA); experiment: as above; settings: 360 h, 15 DAA, visual score, read-out: Post-emergence herbicidal activity (percentage phytotoxicity) SETFA; for pest or weed control at 125 g/ha: application rate 125 g/ha
Outline: as §1

[13] = tested on: Echinochloa crus-galli (ECHCG); experiment: as above; settings: 360 h, 15 DAA, visual score, read-out: Post-emergence herbicidal activity (percentage phytotoxicity) ECHCG; for pest or weed control at 125 g/ha: application rate 125 g/ha
Outline: as §1

[14] = tested on: Panicum miliaceum (PANMI); experiment: as above; settings: 360 h, 15 DAA, visual score, read-out: Post-emergence herbicidal activity (percentage phytotoxicity) PANMI; for pest or weed control at 125 g/ha: application rate 125 g/ha
Outline: as §1

C#CCC1C(=O)C(c2c(C)cc(C)cc2C)C(=O)C1CC#C (stereo not drawn) [Compound A42]
pest or weed control at 250 g/ha [1]: 80% | pest or weed control at 500 g/ha ([2]; 500 g/ha): 80% | pest or weed control at 500 g/ha ([3]; 500 g/ha): 100% | pest or weed control at 500 g/ha ([4]; 500 g/ha): 70% | pest or weed control at 500 g/ha ([5]; 500 g/ha): 80% | pest or weed control at 500 g/ha ([6]; 500 g/ha): 100% | pest or weed control at 500 g/ha ([7]; 500 g/ha): 100% | pest or weed control at 125 g/ha [8]: 50% | pest or weed control at 500 g/ha ([8]; application rate 500 g/ha): 70% | pest or weed control at 125 g/ha [9]: 80% | pest or weed control at 500 g/ha ([9]; application rate 500 g/ha): 100% | pest or weed control at 125 g/ha [10]: 100% | pest or weed control at 500 g/ha ([10]; application rate 500 g/ha): 100% | pest or weed control at 125 g/ha [11]: 90% | pest or weed control at 500 g/ha ([11]; application rate 500 g/ha): 100% | pest or weed control at 125 g/ha [12]: 90% | pest or weed control at 500 g/ha ([12]; application rate 500 g/ha): 100% | pest or weed control at 125 g/ha [13]: 100% | pest or weed control at 500 g/ha ([13]; application rate 500 g/ha): 100% | pest or weed control at 125 g/ha [14]: 100% | pest or weed control at 500 g/ha ([14]; application rate 500 g/ha): 100%

C#CCC1CC(OC(C)=O)=C(c2c(C)cc(-c3ccc(F)cc3)cc2C)C1=O (stereo not drawn) [Compound A45]
pest or weed control at 250 g/ha [1]: 100% | pest or weed control at 125 g/ha ([2]; 125 g/ha): 80% | pest or weed control at 125 g/ha ([3]; 125 g/ha): 90% | pest or weed control at 125 g/ha ([4]; 125 g/ha): 90% | pest or weed control at 125 g/ha ([5]; 125 g/ha): 90% | pest or weed control at 125 g/ha ([6]; 125 g/ha): 80% | pest or weed control at 125 g/ha ([7]; 125 g/ha): 100% | pest or weed control at 30 g/ha ([8]; application rate 30 g/ha): 70% | pest or weed control at 125 g/ha [8]: 90% | pest or weed control at 30 g/ha ([9]; application rate 30 g/ha): 70% | pest or weed control at 125 g/ha [9]: 100% | pest or weed control at 30 g/ha ([10]; application rate 30 g/ha): 90% | pest or weed control at 125 g/ha [10]: 100% | pest or weed control at 30 g/ha ([11]; application rate 30 g/ha): 100% | pest or weed control at 125 g/ha [11]: 100% | pest or weed control at 30 g/ha ([12]; application rate 30 g/ha): 90% | pest or weed control at 125 g/ha [12]: 100% | pest or weed control at 30 g/ha ([13]; application rate 30 g/ha): 100% | pest or weed control at 125 g/ha [13]: 100% | pest or weed control at 30 g/ha ([14]; application rate 30 g/ha): 100% | pest or weed control at 125 g/ha [14]: 100%
